Source: patent EP0119737A2, “Pharmaceutical composition and its production” (Takeda Chemical Industries, Ltd., priority 1983, dated 1984)
In brackets after ≈: the same amount, converted by molar mass.

Experiments:
[1] = system: Escherichia coli IFO 3044; assay: Minimal inhibitory concentration (MIC) of preservative solutions, serial dilution in culture medium, read with the naked eye; format: cell-based; conditions: IFO3044, 72 h, E. coli IFO 3044, 10^5 cfu/ml, 35°C, 3 days
Experimental: (§1) Thus, two culture media are prepared by adding 0% and 5% of a-cyclodextrin, respectively, to a 1/15 M phosphate buffer (pH 6.5) containing 2% of Polypeptone (Daigo Nutritive Chemicals Ltd., Japan). The preservative is added to each medium and the resulting solution is diluted serially with each of the respective media to give solutions differing in preservative concentration. The test organisms are added to these solutions to a final concentration of 10^5 cfu/ml (cfu: colony forming unit).

[2] = system: Aspergillus niger ATCC 9642; assay: as above; format: cell-based; conditions: ATCC9642, 120 h, A. niger ATCC 9642, 10^5 cfu/ml, 25°C, 5 days
Experimental: as §1

[3] = pH 6.5, Culture medium + 5% α-cyclodextrin
[4] = pH 6.5, Culture medium without addition of cyclodextrin

Molecule `CCCCOC(=O)c1ccc(O)cc1` [Butylparaben] has an MIC [1, 3] of 4000 µg/mL, an MIC [1, 4] of 125 µg/mL (≈ 644 µM) and an MIC [2, 3] of 4000 µg/mL. For the same molecule, the MIC [2, 4] was 125 µg/mL (≈ 644 µM).

`CCOC(=O)c1ccc(O)cc1` [Ethylparaben] was tested, and the MIC [1, 3] was 4000 µg/mL, the MIC [1, 4] was 500 µg/mL (≈ 3010 µM) and the MIC [2, 3] was 4000 µg/mL. It also gave an MIC [2, 4] of 250 µg/mL (≈ 1500 µM).

Molecule `COC(=O)c1ccc(O)cc1` [Methylparaben] has an MIC [1, 3] of 4000 µg/mL, an MIC [1, 4] of 500 µg/mL (≈ 3290 µM) and an MIC [2, 3] of 4000 µg/mL. The MIC [2, 4] was 500 µg/mL (≈ 3290 µM).

Molecule `CCCOC(=O)c1ccc(O)cc1` [Propylparaben] has an MIC [1, 3] of 4000 µg/mL, an MIC [1, 4] of 250 µg/mL (≈ 1390 µM) and an MIC [2, 3] of 4000 µg/mL. For the same molecule, the MIC [2, 4] was 125 µg/mL (≈ 694 µM).

`Cc1cc(O)ccc1Cl` [p-Chloro-m-cresol, p-chloro-m-cresol] showed an MIC [1, 3] of 200 µg/mL, an MIC [1, 4] of 200 µg/mL (≈ 1400 µM) and an MIC [2, 3] of 200 µg/mL. It also gave an MIC [2, 4] of 100 µg/mL (≈ 701 µM).

With `Cc1cc(O)cc(C)c1Cl` [p-Chloro-m-xylenol, p-chloro-m-xylenol] the MIC [1, 3] was 150 µg/mL, the MIC [1, 4] was 100 µg/mL (≈ 639 µM) and the MIC [2, 3] was 75 µg/mL. The MIC [2, 4] was 50 µg/mL (≈ 319 µM).

For `Oc1ccc(Cl)cc1` [p-Chlorophenol, p-chlorophenol], the MIC [1, 3] was 400 µg/mL, the MIC [1, 4] was 200 µg/mL (≈ 1560 µM) and the MIC [2, 3] was 400 µg/mL. It also gave an MIC [2, 4] of 200 µg/mL (≈ 1560 µM).
